Measurements from patent US5665738A, “Imidazole derivatives and processes for the preparation thereof” (Korea Research Institute of Chemical Technology, priority 1994, dated 1997).

Tested on: angiotensin II receptor
Assay: Angiotensin II receptor binding assay ([3H] angiotensin II displacement)
Settings: 60 minutes at 25° C., pH 7.2, test concentration not given
Description: The inventive compounds were tested to measure their angiotensin II receptor binding capacity as follows.
1. Angiotensin II receptor binding assay
In accordance with the procedure disclosed in Chiu, A. T. et al., Eur. J. Pharm., 157, 13 ([…])t a ligand marked with a radioistope was reacted with an angiotensin II receptor and the reactant was filtered with a glass fiber to remove unreacted ligand. After washing the filter, the amount of the remaining isotope was measured to determine the binding activity of the ligand, as described below in detail.
(i) Isolation of angiotensin II receptor
Sprague-Dawley rats and Wistar rats of 250 to 350 g (from The Korea Research Institute of Chemical Technology) were tested and the test procedures were carried out at 4° C., unless otherwise specified. Adrenal gland was separated from the Sprague-Dawley rats (liver, in the case of Wistar rats) into cortex and medulla. The separated adrenal cortex and medulla were washed with a sucrose buffer solution (0.2M sucrose, 1 mM EDTA, 10 mM Tris, pH 7.2) and homogenized in the same buffer solution by using a Teflon pestle and a Brinkmann homogenizer. The homogenates were centrifuged at 3,000× g for 10 minutes to remove precipitates and further centrifuged at 12,000× g for 13 minutes. The final supernatants were centrifuged at 102,000× g for 1 hour to obtain precipitates, which were washed with a Tris buffer solution (50 mM Tris, 5 mM MgCl2, pH 7.2) and re-centrifuged at 102,000× g for 1 hour. The resulting precipitates were immediately processed at the following step or stored at -70° C.
The precipitates were suspended in a Tris buffer solution. The amount of protein was determined by using a Bio-Rad DC protein analyzing kit and the protein concentration was adjusted to the amounts of: 0.2 to 0.3 mg/ml (Sprague-Dawley rat: adrenal cortex), 1.5 to 2.0 mg/ml (Sprague-Dawley rat: adrenal medulla), and 1.5 to 2.0 mg/ml (Wistar rat: liver). To the suspension, bovine serum albumin (BSA) was added to a concentration of 0.25 wt % and the resultant was immediately processed at the following step or stored at -70° C.
(ii) Measurement of angiotensin II receptor binding capacity
50 μl (based on ligand) of [^3 H] angiotensin II (NEN, NET-446) and 10 μl of each of the test compounds with various concentrations were added to the buffer solution (50 mM Tris (pH 7.2), 5 mM MgCl2, 0.25% BSA) to adjust the final volume to be 0.5 ml. Losartan (Dup 753), which is disclosed in EP No. 400,974 issued to Merck, was used as the control compound. 100 μl of the receptor suspension was added thereto and the resulting solution was reacted for 60 minutes while stirring in a water bath at 25° C. 3 ml of cold buffer solution for analysis was added to cease the reaction. The isotope which was bound to the receptor was isolated from the resultant by using Brandel Cell Harvester System with Whatman glass fiber GF/C. After washing the filter, the radioactivity of the filter was determined by using a liquid scintillation counter. Binding inhibition (%) of the test compound was calculated as follows:
Binding Inhibition (%)=[{(T-B)-(S-B)}/(T-B)]×100
wherein T is the radioactivity (cpm) of the reaction product untreated with the test compound, S is the radioactivity (cpm) of the reaction product treated with the test compound, and B is the radioactivity (cpm) of blank test.

Row | Compound | Binding Inhibition (%)
1 | CCCCc1nc(Cl)c(C(=O)c2cccc(C(OC)OC)[n+]2[O-])n1Cc1ccc(-c2ccccc2-c2nn[nH]n2)cc1 [Compound 1, {2-butyl-5-chloro-3-[(2'-(1H-tetrazol-5-yl)biphenyl-4-yl)methyl]-3H-imidazol-4-yl}[6-(dimethoxymethyl)-1-oxypyridin-2-yl]methanone] | 91.1
2 | CCCCc1nc(Cl)c(C(=O)c2cccc(C=O)[n+]2[O-])n1Cc1ccc(-c2ccccc2-c2nn[nH]n2)cc1 [Compound 2, {2-butyl-5-chloro-3-[(2'-(1H-tetrazol-5-yl)biphenyl-4-yl)methyl]-3H-imidazol-4-yl}(6-formyl-1-oxypyridin-2-yl)methanone] | 95.0
3 | CCCCc1nc(Cl)c(C(=O)c2cccc(CO)[n+]2[O-])n1Cc1ccc(-c2ccccc2-c2nn[nH]n2)cc1 [Compound 3, {2-butyl-5-chloro-3-[(2'-(1H-tetrazol-5-yl)biphenyl-4-yl)methyl]-3H-imidazol-4-yl}(6-hydroxymethyl-1-oxypyridin-2-yl)methanone] | 96.3
4 | CCCCc1nc(Cl)c(C(O)c2cccc(C(OC)OC)n2)n1Cc1ccc(-c2ccccc2-c2nnn[nH]2)cc1 (stereo not drawn) [Compound 4, {2-butyl-5-chloro-3-[(2'-(1H-tetrazol-5-yl)biphenyl-4-yl)methyl]-3H-imidazol-4-yl}[6-(dimethoxymethyl)pyridin-2-yl]methanol] | 71.2
5 | CCCCc1nc(Cl)c(C(O)c2cccc(C=O)n2)n1Cc1ccc(-c2ccccc2-c2nnn[nH]2)cc1 (stereo not drawn) [Compound 5, {2-butyl-5-chloro-3-[(2'-(1H-tetrazol-5-yl)biphenyl-4-yl)methyl]-3H-imidazol-4-yl}(6-formylpyridin-2-yl)methanol] | 64.9
6 | CCCCc1nc(Cl)c(C(=O)c2cccc(C(OC)OC)n2)n1Cc1ccc(-c2ccccc2-c2nnn[nH]2)cc1 [Compound 6, {2-butyl-5-chloro-3-[(2'-(1H-tetrazol-5-yl)biphenyl-4-yl)methyl]-3H-imidazol-4-yl}[6-(dimethoxymethyl)pyridin-2-yl]methanone] | 91.2
7 | CCCCc1nc(Cl)c(C(=O)c2cccc(C=O)n2)n1Cc1ccc(-c2ccccc2-c2nnn[nH]2)cc1 [Compound 7, {2-butyl-5-chloro-3-[(2'-(1H-tetrazol-5-yl)biphenyl-4-yl)methyl]-3H-imidazol-4-yl}(6-formylpyridin-2-yl)methanone] | 79.8
8 | CCCCc1nc(Cl)c(C(=O)c2cccc(CO)n2)n1Cc1ccc(-c2ccccc2-c2nnn[nH]2)cc1 [Compound 8, {2-butyl-5-chloro-3-[(2'-(1H-tetrazol-5-yl)biphenyl-4-yl)methyl]-3H-imidazol-4-yl}[6-(hydroxymethyl)pyridin-2-yl]methanone] | 68.9
9 | CCCCc1nc(Cl)c(C(O)c2cccc(CN(CC)CC)[n+]2[O-])n1Cc1ccc(-c2ccccc2-c2nn[nH]n2)cc1 (stereo not drawn) [Compound 9, {2-butyl-5-chloro-3-[(2'-(1H-tetrazol-5-yl)biphenyl-4-yl)methyl]-3H-imidazol-4-yl}[6-(diethylamino)methyl-1-oxypyridin-2-yl]methanol] | 30.5
10 | CCCCc1nc(Cl)c(C(=O)c2cccc(CN(CC)CC)[n+]2[O-])n1Cc1ccc(-c2ccccc2-c2nn[nH]n2)cc1 [Compound 10, {2-butyl-5-chloro-3-[(2'-(1H-tetrazol-5-yl)biphenyl-4-yl)methyl]-3H-imidazol-4-yl}[6-(diethylamino)methyl-1-oxypyridin-2-yl]methanone] | 91.1
11 | CCCCc1nc(Cl)c(C(=O)c2cccc(C[N+]([O-])(CC)CC)[n+]2[O-])n1Cc1ccc(-c2ccccc2-c2nn[nH]n2)cc1 [Compound 11, {2-butyl-5-chloro-3-[(2'-(1H-tetrazol-5-yl)biphenyl-4-yl)methyl]-3H-imidazol-4-yl}[6-((diethyl)(oxy)amino)methyl-1-oxypyridin-2-yl]methanone] | 99.9
12 | CCCCc1nc(Cl)c(C(O)c2cccc(CN(CC)CC)n2)n1Cc1ccc(-c2ccccc2-c2nnn[nH]2)cc1 (stereo not drawn) [Compound 12, {2-butyl-5-chloro-3-[(2'-(1H-tetrazol-5-yl)biphenyl-4-yl)methyl]-3H-imidazol-4-yl}[6-((diethylamino)methyl)pyridin-2-yl]methanol] | 63.2
13 | CCCCc1nc(Cl)c(C(=O)c2cccc(CN(CC)CC)n2)n1Cc1ccc(-c2ccccc2-c2nnn[nH]2)cc1 [Compound 13, {2-butyl-5-chloro-3-[(2'-(1H-tetrazol-5-yl)biphenyl-4-yl)methyl]-3H-imidazol-4-yl}[6-((diethylamino)methyl)pyridin-2-yl]methanone] | 90.5
14 | CCCCc1nc(Cl)c(C(=O)c2cccc(C[N+]([O-])(CC)CC)n2)n1Cc1ccc(-c2ccccc2-c2nn[nH]n2)cc1 [Compound 14, {2-butyl-5-chloro-3-[(2'-(1H-tetrazol-5-yl)biphenyl-4-yl)methyl]-3H-imidazol-4-yl}[6-[((diethyl)(oxy)amino)methyl]pyridin-2-yl]methanone] | 92.1
15 | CCCCc1nc(Cl)c(C(=O)c2cccc(Br)[n+]2[O-])n1Cc1ccc(-c2ccccc2-c2nn[nH]n2)cc1 [Compound 15, {2-butyl-5-chloro-3-[(2'-(1H-tetrazol-5-yl)biphenyl-4-yl)methyl]-3H-imidazol-4-yl}(6-bromo-1-oxypyridin-2-yl)methanone] | 88.6
16 | CCCCc1nc(Cl)c(C(O)c2cccc(Br)[n+]2[O-])n1Cc1ccc(-c2ccccc2-c2nn[nH]n2)cc1 (stereo not drawn) [Compound 16] | 62.9
17 | CCCCc1nc(Cl)c(C(=O)c2cccc(Br)n2)n1Cc1ccc(-c2ccccc2-c2nnn[nH]2)cc1 [Compound 17, {2-butyl-5-chloro-3-[(2'-(1H-tetrazol-5-yl)biphenyl-4-yl)methyl]-3H-imidazol-4-yl}(6-bromopyridin-2-yl)methanone] | 50.3
18 | CCCCc1nc(Cl)c(C(O)c2cccc(Br)n2)n1Cc1ccc(-c2ccccc2-c2nnn[nH]2)cc1 (stereo not drawn) [Compound 18, {2-butyl-5-chloro-3-[(2'-(1H-tetrazol-5-yl)biphenyl-4-yl)methyl]-3H-imidazol-4-yl}(6-bromopyridin-2-yl)methanol] | 57.1
19 | CCCCc1nc(Cl)c(C(=O)c2cccc(C(C)O)[n+]2[O-])n1Cc1ccc(-c2ccccc2-c2nn[nH]n2)cc1 (stereo not drawn) [Compound 19, {2-butyl-5-chloro-3-[(2'-(1H-tetrazol-5-yl)biphenyl-4-yl)methyl]-3H-imidazol-4-yl}[6-(1-hydroxyethyl)-1-oxypyridin-2-yl]methanone] | 88.7
20 | CCCCc1nc(Cl)c(C(=O)c2cccc(C(C)=O)[n+]2[O-])n1Cc1ccc(-c2ccccc2-c2nn[nH]n2)cc1 [Compound 20, {2-butyl-5-chloro-3-[(2'-(1H-tetrazol-5-yl)biphenyl-4-yl)methyl]-3H-imidazol-4-yl}(6-acetyl-1-oxypyridin-2-yl)methanone] | 89.0
21 | CCCCc1nc(Cl)c(C(=O)c2cccc(C(=O)OC)[n+]2[O-])n1Cc1ccc(-c2ccccc2-c2nn[nH]n2)cc1 [Compound 21, {2-butyl-5-chloro-3-[(2'-(1H-tetrazol-5-yl)biphenyl-4-yl)methyl]-3H-imidazol-4-yl}(6-methoxycarbonyl-1-oxypyridin-2-yl)methanone] | 86.5
